Assay results published in the supplement of paper PMC11061612.

Key:
Experiment in all cases: combination Emax (second highest fraction inhibited in the dose matrix, 72 h); higher = more inhibition; extreme values may be limits of the assay
[1] = tested on: NCI-H1623 (Lung Adenocarcinoma)
In short: (§1)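 Cell lines grown in DMEM/F12 or RPMI with 10% FBS were plated in 1536-well plates and held 24 hours at 37°C, 5% CO2 before 72 hours of exposure to two-drug dose matrices, with DMSO typically at 0.2%. CellTiter-Glo 2.0 luminescence gave viability, which was converted to inhibition. Vehicle wells were set to 0 and blank wells to 1. Combination Emax is the second-highest inhibition in the matrix, and Bliss excess is the observed combination effect minus the expected EA + EB − EA·EB, where EA and EB are the single-agent effects.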

[2] = tested on: JHH-1 (Hepatocellular Carcinoma)
In short: as §1

[3] = tested on: RERF-LC-KJ (Lung Adenocarcinoma)
In short: as §1

[4] = tested on: HSC-3 (Oral Cavity Carcinoma)
In short: as §1

Row | Compound | combination Emax [1] | combination Emax [2] | combination Emax [3] | combination Emax [4]
1 | COc1cccc(OCCCN)c1-c1cc(Nc2cnc(C#N)cn2)n[nH]1 [Prexasertib] + Cc1cc2ncnn2cc1Nc1ncc2c(n1)n(C1CCOCC1)c(=O)n2C [AZD7648] (first compound max 1 µM, 7x7, partner max 10 µM) | 0.804 | 0.559 | 0.416 | 0.731
2 | CCc1c2c(nc3ccc(O)cc13)-c1cc3c(c(=O)n1C2)COC(=O)[C@]3(O)CC [SN-38] + O=C(c1cc(Cc2n[nH]c(=O)c3ccccc23)ccc1F)N1CCN(C(=O)C2CC2)CC1 [Olaparib] (first compound max 0.3 µM, 7x7, partner max 10 µM) |  | 0.539 |  | 0.847
3 | CC1(C)CCC(CN2CCN(c3ccc(C(=O)NS(=O)(=O)c4ccc(NCC5CCOCC5)c([N+](=O)[O-])c4)c(Oc4cnc5[nH]ccc5c4)c3)CC2)=C(c2ccc(Cl)cc2)C1 [Venetoclax] + COc1cc(Nc2ncc3c(n2)-c2ccc(Cl)cc2C(c2c(F)cccc2OC)=NC3)ccc1C(=O)O [Alisertib] (first compound max 1 µM, 7x7, partner max 10 µM) | 0.391 | 0.567 | 0.48 | 0.61
4 | Cc1cc2ncnn2cc1Nc1ncc2c(n1)n(C1CCOCC1)c(=O)n2C [AZD7648] + C[C@@H]1COCCN1C2=NC(=NC(=C2)C3(CC3)[S@](=N)(=O)C)C4=C5C=CNC5=NC=C4 [AZD6738] (first compound max 10 µM, 7x7, partner max 10 µM) | 0.588 | 0.476 | 0.349 | 0.405
5 | Cc1cc2ncnn2cc1Nc1ncc2c(n1)n(C1CCOCC1)c(=O)n2C [AZD7648] + CN(C)CCCOc1ccc(-c2ccc3ncc4c(c3c2)n(C2CCOCC2)c(=O)n4C)cn1 [AZD0156] (first compound max 10 µM, 7x7, partner max 1 µM) | 0.257 | 0.207 | 0.314 | 0.174
6 | Cc1c2c(nn1C)CSCc1cc(n(C)n1)CSc1cc(c3ccccc3c1)OCCCc1c(C(=O)O)n(C)c3c-2c(Cl)ccc13 [AZD5991] + CC1(C)CCC(CN2CCN(c3ccc(C(=O)NS(=O)(=O)c4ccc(NCC5CCOCC5)c([N+](=O)[O-])c4)c(Oc4cnc5[nH]ccc5c4)c3)CC2)=C(c2ccc(Cl)cc2)C1 [Venetoclax] (first compound max 1 µM, 7x7, partner max 1 µM) | 0.905 | 0.963 | 0.444 | 0.466
7 | COc1cccc2c1C(=O)c1c(O)c3c(c(O)c1C2=O)C[C@@](O)(C(=O)CO)C[C@@H]3O[C@H]1C[C@H](N)[C@H](O)[C@H](C)O1 [Doxorubicin] + Cc1cc2ncnn2cc1Nc1ncc2c(n1)n(C1CCOCC1)c(=O)n2C [AZD7648] (first compound max 1 µM, 7x7, partner max 10 µM) | 0.647 | 0.353 | 0.711 | 0.702
8 | CC1(C)CCC(CN2CCN(c3ccc(C(=O)NS(=O)(=O)c4ccc(NCC5CCOCC5)c([N+](=O)[O-])c4)c(Oc4cnc5[nH]ccc5c4)c3)CC2)=C(c2ccc(Cl)cc2)C1 [Venetoclax] + CCN(CCO)CCCOc1ccc2c(Nc3cc(CC(=O)Nc4cccc(F)c4)[nH]n3)ncnc2c1 [AZD2811] (first compound max 1 µM, 7x7, partner max 1 µM) | 0.211 | 0.268 | 0.298 | 0.436
9 | Cc1c2c(nn1C)CSCc1cc(n(C)n1)CSc1cc(c3ccccc3c1)OCCCc1c(C(=O)O)n(C)c3c-2c(Cl)ccc13 [AZD5991] + CCN(CCO)CCCOc1ccc2c(Nc3cc(CC(=O)Nc4cccc(F)c4)[nH]n3)ncnc2c1 [AZD2811] (first compound max 1 µM, 7x7, partner max 1 µM) | 0.899 | 0.517 | 0.584 | 0.91
10 | CC1(C)CCC(CN2CCN(c3ccc(C(=O)NS(=O)(=O)c4ccc(NCC5CCOCC5)c([N+](=O)[O-])c4)c(Oc4cnc5[nH]ccc5c4)c3)CC2)=C(c2ccc(Cl)cc2)C1 [Venetoclax] + C[C@@H]1COCCN1C2=NC(=NC(=C2)C3(CC3)[S@](=N)(=O)C)C4=C5C=CNC5=NC=C4 [AZD6738] (first compound max 1 µM, 7x7, partner max 10 µM) | 0.827 | 0.609 | 0.313 | 0.548
11 | Cc1c2c(nn1C)CSCc1cc(n(C)n1)CSc1cc(c3ccccc3c1)OCCCc1c(C(=O)O)n(C)c3c-2c(Cl)ccc13 [AZD5991] + C1CN(CCC1(C(=O)N[C@@H](CCO)C2=CC=C(C=C2)Cl)N)C3=NC=NC4=C3C=CN4 [Capivasertib] (first compound max 1 µM, 7x7, partner max 3 µM) | 1 | 0.373 | 0.495 | 0.728
12 | CN(CCO)CC[C@H](CSc1ccccc1)Nc1ccc(S(=O)(=O)NC(=O)c2ccc(N3CCC([C@@H](O)c4ccccc4-c4ccc(Cl)cc4)CC3)cc2)cc1S(=O)(=O)C(F)(F)F [AZD4320] + Cn1cnc2c(F)c(Nc3ccc(Br)cc3Cl)c(C(=O)NOCCO)cc21 [Selumetinib] (first compound max 1 µM, 7x7, partner max 3 µM) | 0.859 | 0.8 | 0.298 | 0.701
13 | CN(C)CCCOc1ccc(-c2ccc3ncc4c(c3c2)n(C2CCOCC2)c(=O)n4C)cn1 [AZD0156] + CCN(CCO)CCCOc1ccc2c(Nc3cc(CC(=O)Nc4cccc(F)c4)[nH]n3)ncnc2c1 [AZD2811] (first compound max 1 µM, 7x7, partner max 1 µM) | 0.0312 | 0.108 | 0.359 | 0.308
14 | COc1cccc(OCCCN)c1-c1cc(Nc2cnc(C#N)cn2)n[nH]1 [Prexasertib] + C[C@@H]1COCCN1C2=NC(=NC(=C2)C3(CC3)[S@](=N)(=O)C)C4=C5C=CNC5=NC=C4 [AZD6738] (first compound max 1 µM, 7x7, partner max 10 µM) | 0.827 | 0.579 | 0.278 | 0.731
15 | CN(CCO)CC[C@H](CSc1ccccc1)Nc1ccc(S(=O)(=O)NC(=O)c2ccc(N3CCC([C@@H](O)c4ccccc4-c4ccc(Cl)cc4)CC3)cc2)cc1S(=O)(=O)C(F)(F)F [AZD4320] + C[C@@H](Nc1cc(F)cc(F)c1)c1cc(C(=O)N(C)C)cc2c(=O)cc(N3CCOCC3)oc12 [AZD8186] (first compound max 1 µM, 7x7, partner max 3 µM) | 0.865 | 0.747 | 0.431 | 0.711
16 | Cc1c2c(nn1C)CSCc1cc(n(C)n1)CSc1cc(c3ccccc3c1)OCCCc1c(C(=O)O)n(C)c3c-2c(Cl)ccc13 [AZD5991] + Cc1cc2ncnn2cc1Nc1ncc2c(n1)n(C1CCOCC1)c(=O)n2C [AZD7648] (first compound max 1 µM, 7x7, partner max 10 µM) | 0.952 | 0.35 | 0.48 | 0.52
17 | CN(C)CCCOc1ccc(-c2ccc3ncc4c(c3c2)n(C2CCOCC2)c(=O)n4C)cn1 [AZD0156] + C[C@@H]1COCCN1C2=NC(=NC(=C2)C3(CC3)[S@](=N)(=O)C)C4=C5C=CNC5=NC=C4 [AZD6738] (first compound max 1 µM, 7x7, partner max 10 µM) | 0.675 | 0.596 | 0.225 | 0.487
18 | CCN(CCO)CCCOc1ccc2c(Nc3cc(CC(=O)Nc4cccc(F)c4)[nH]n3)ncnc2c1 [AZD2811] + C[C@@H]1COCCN1C2=NC(=NC(=C2)C3(CC3)[S@](=N)(=O)C)C4=C5C=CNC5=NC=C4 [AZD6738] (first compound max 1 µM, 7x7, partner max 10 µM) | 0.6 | 0.504 | 0.319 | 0.454
19 | Cc1c2c(nn1C)CSCc1cc(n(C)n1)CSc1cc(c3ccccc3c1)OCCCc1c(C(=O)O)n(C)c3c-2c(Cl)ccc13 [AZD5991] + CN(C)CCCOc1ccc(-c2ccc3ncc4c(c3c2)n(C2CCOCC2)c(=O)n4C)cn1 [AZD0156] (first compound max 1 µM, 7x7, partner max 1 µM) | 0.891 | 0.48 | 0.589 | 0.873
20 | CN(CCO)CC[C@H](CSc1ccccc1)Nc1ccc(S(=O)(=O)NC(=O)c2ccc(N3CCC([C@@H](O)c4ccccc4-c4ccc(Cl)cc4)CC3)cc2)cc1S(=O)(=O)C(F)(F)F [AZD4320] + C1CN(CCC1(C(=O)N[C@@H](CCO)C2=CC=C(C=C2)Cl)N)C3=NC=NC4=C3C=CN4 [Capivasertib] (first compound max 1 µM, 7x7, partner max 3 µM) | 0.278 | 0.355 | 0.293 | 0.53
21 | CC1(C)CCC(CN2CCN(c3ccc(C(=O)NS(=O)(=O)c4ccc(NCC5CCOCC5)c([N+](=O)[O-])c4)c(Oc4cnc5[nH]ccc5c4)c3)CC2)=C(c2ccc(Cl)cc2)C1 [Venetoclax] + C[C@@H](Nc1cc(F)cc(F)c1)c1cc(C(=O)N(C)C)cc2c(=O)cc(N3CCOCC3)oc12 [AZD8186] (first compound max 1 µM, 7x7, partner max 3 µM) | 0.378 | 0.172 | 0.195 | 0.0933
22 | CN(CCO)CC[C@H](CSc1ccccc1)Nc1ccc(S(=O)(=O)NC(=O)c2ccc(N3CCC([C@@H](O)c4ccccc4-c4ccc(Cl)cc4)CC3)cc2)cc1S(=O)(=O)C(F)(F)F [AZD4320] + C=CCn1c(=O)c2cnc(Nc3ccc(N4CCN(C)CC4)cc3)nc2n1-c1cccc(C(C)(C)O)n1 [AZD1775] (first compound max 1 µM, partner max 1 µM) | 0.608 | 0.918 | 0.272 | 0.707
23 | C[C@@H]1COCCN1c1cc(C2([S@](C)(=N)=O)CC2)nc(-c2ccnc3[nH]ccc23)n1 [AZD6738] + O=C(c1cc(Cc2n[nH]c(=O)c3ccccc23)ccc1F)N1CCN(C(=O)C2CC2)CC1 [Olaparib] (first compound max 10 µM, 7x7, partner max 10 µM) | 0.693 | 0.458 | 0.326 | 0.404
24 | CN(CCO)CC[C@H](CSc1ccccc1)Nc1ccc(S(=O)(=O)NC(=O)c2ccc(N3CCC([C@@H](O)c4ccccc4-c4ccc(Cl)cc4)CC3)cc2)cc1S(=O)(=O)C(F)(F)F [AZD4320] + CN(C)CCCOc1ccc(-c2ccc3ncc4c(c3c2)n(C2CCOCC2)c(=O)n4C)cn1 [AZD0156] (first compound max 1 µM, 7x7, partner max 1 µM) | 0.191 | 0.444 | 0.267 | 0.145
